{"source": "patent US20230082287A1", "about": "“METHODS OF TREATING AN INFLAMMATORY OR OBSTRUCTIVE AIRWAY DISEASE USING ANTI-TSLP ANTIBODY” (Novartis AG, priority 2020, published 2023)", "key": {"[1]": {"system": "late asthmatic response (LAR)", "conditions": "400/12 μg; J ALLERGY CLIN IMMUNOL VOLUME 119, NUMBER 2, pp 322-327; cited from earlier work"}, "[2]": {"system": "late asthmatic response (LAR)", "assay": "Published allergen challenge LAR data for budesonide/formoterol", "assay_type": "in vivo", "conditions": "400/12 μg; calculated from published data", "from_the_text": "Published data from other widely asthma treatment budosenide/formoterol (ICS/LABA, inhaled corticosteroid+long-acting beta agonist) combination was used in a similar fashion to calculate its efficacy and results compared with CSJ117 in Table 10."}}, "data": [{"substance": "Budesonide/formoterol", "values": [{"measurement": "LAR Treatment (A), maximal fall % FEV1", "setting": "[1]", "result": 4.2, "unit": "%"}, {"measurement": "E, % [(B-A)/B]*100", "setting": "[2]", "result": 80.2, "unit": "%"}, {"measurement": "LAR B-A (placebo minus treatment), maximal fall % FEV1", "setting": "[2]", "result": 17}]}]}
